From patent US11912723B2, “KRAS modulators and uses thereof” (Quanta Therapeutics, Inc., priority 2022, dated 2024)

Target: T1, GST-tagged KRAS G12D (2-169) (Homo sapiens, UniProt P01116, G12D)
T1 construct: GST-tagged KRAS^G12D (2-169, Reaction Biology, MSC-11-539); purchased Reaction Biology MSC-11-539 (KRAS G12D); MSC-11-502 (SOS1cat)
Test: Nucleotide exchange assay (NEA), HTRF of SOS-mediated GTP-DY-647P1 binding
Assay type: biochemical
Conditions: 5 nM GST-KRAS G12D, 20 nM SOScat, 150 nM GTP; compound 1 h at RT
Description: This activity is tightly regulated by GTPase activating proteins (GAPs) and guanine nucleotide exchange factors (GEFs). GEFs, such as SOS1/2, activate Ras proteins by exchanging GDP for GTP, thus returning Ras to its active conformation (Simanshu, Nissley, & McCormick, 2017). […] Homogenous time resolved fluorescence (HTRF) was used to detect SOS-mediated binding of a fluorescent GTP analog, GTP-DY-647P1 (Jena Biosciences NU-820-647P1) to GST-tagged KRAS^G12D (2-169, Reaction Biology, MSC-11-539).
GST-tagged KRAS^G12D (2-169) and anti-GST MAb Tb Cryptate Gold (CisBio 61GSTTLB) were diluted into assay buffer (20 mM HEPES, pH 7.3, 150 mM NaCl, 5 mM MgCl2, 0.05% BSA 0.0025% NP40, 1 mM DTT) to prepare a 2.5× donor solution. 5× compound was added to the protein mixture and incubated for 1 h at RT. 2.5× acceptor solution containing SOS1cat (564-1049, Reaction Biology MSC-11-502) and GTP-DY-647P1 were then added to the donor KRAS mixture such that the final concentration of the reaction contained 5 nM GST-tagged KRAS^G12D (2-169), 20 nM SOScat, and 150 nM GTP. The reaction was monitored using at RT with the Envision multimode plate reader (Ex/Em 337/665, […]) up to 90 minutes at 5 minute intervals. Data was blanked to reactions without SOS1 and % inhibition was calculated such that DMSO only=0% and blank=100%. Curve fitting was done using a 4 parameter fit. NEA KRAS G12D ID50 (uM) values of selected compounds are depicted in Table 2 with compounds having a value<0.01 uM as ++++; >0.01 uM to 0.1 uM as +++; >0.1 uM to 1 uM as ++; >1 uM to 20 uM as +; and >20 uM as NA.

T1 sequence (P01116 2-169 isoform P01116-2 G12D): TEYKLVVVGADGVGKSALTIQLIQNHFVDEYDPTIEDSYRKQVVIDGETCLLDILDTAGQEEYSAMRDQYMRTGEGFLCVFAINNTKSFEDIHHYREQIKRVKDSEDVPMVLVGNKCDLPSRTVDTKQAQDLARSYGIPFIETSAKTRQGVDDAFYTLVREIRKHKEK

Structure (SMILES)	IC50 [µM]
O=C1CCCN(c2nc(OCC34CCCN3CC(F)C4)nc3c2COC2(CCc4c(Cl)cccc42)C3)CC1 (mixture of isomers) [Compound 21, 1-[4′-chloro-2-[[rac-(2R,8S)-2-fluoro-1,2,3,5,6,7-hexahydropyrrolizin-8-yl]methoxy]spiro[5,8-dihydropyrano[4,3-d]pyrimidine-7,1′-indane]-4-yl]azepan-4-one]	1 to 20
N#Cc1c(N)sc2c1C1(CCC2)Cc2nc(OC[C@@]34CCCN3C[C@H](F)C4)nc(N3CCCCCC3)c2CO1 (mixture of isomers) [Compound 26, 2′-amino-4-(azepan-1-yl)-2-[[rac-(2R,8S)-2-fluoro-1,2,3,5,6,7-hexahydropyrrolizin-8-yl]methoxy]spiro[5,8-dihydropyrano[4,3-d]pyrimidine-7,4′-6,7-dihydro-5H-benzothiophene]-3′-carbonitrile]	1 to 20
C[C@@]1(O)CCCN(c2nc(OC[C@@]34CCCN3C[C@H](F)C4)nc3c2COC2(CCc4c(Cl)cccc42)C3)C1 (single isomer, unassigned) [Compound 23B, (3R)-1-[(7*)-4′-chloro-2-[[(2R,8S)-2-fluoro-1,2,3,5,6,7-hexahydropyrrolizin-8-yl]methoxy]spiro[5,8-dihydropyrano[4,3-d]pyrimidine-7,1′-indane]-4-yl]-3-methyl-piperidin-3-ol]	1 to 20
O=C1NC(=O)[C@]2(CCCN(c3nc(OC[C@@]45CCCN4C[C@H](F)C5)nc4c3COC3(CCCc5c(Cl)cc(O)cc53)C4)C2)N1 (single isomer, unassigned) [Compound 51A, (5R)-9-[(7*)-5′-chloro-2-[[(2R,8S)-2-fluoro-1,2,3,5,6,7-hexahydropyrrolizin-8-yl]methoxy]-7′-hydroxy-spiro[5,8-dihydropyrano[4,3-d]pyrimidine-7,1′-tetralin]-4-yl]-1,3,9-triazaspiro[4.5]decane-2,4-dione]	1 to 20
OC1CCCN(c2nc(OC[C@@]34CCCN3C[C@H](F)C4)nc3c2COC2(CCCc4ccc(F)cc42)C3)CC1 (stereo partly drawn) [Compound 11, 1-[7′-fluoro-2-[[(2R,8S)-2-fluoro-1,2,3,5,6,7-hexahydropyrrolizin-8-yl]methoxy]spiro[5,8-dihydropyrano[4,3-d]pyrimidine-7,1′-tetralin]-4-yl]azepan-4-ol]	1 to 20
F[C@H]1CN2CCC[C@@]2(COc2nc3c(c(N4CCCCCC4)n2)COC2(CCCc4ccccc42)C3)C1 (stereo partly drawn) [Compound 12, 4-(azepan-1-yl)-2-[[(2R,8S)-2-fluoro-1,2,3,5,6,7-hexahydropyrrolizin-8-yl]methoxy]spiro[5,8-dihydropyrano[4,3-d]pyrimidine-7,1′-tetralin]]	1 to 20
O[C@@H]1CCN(c2nc(OC[C@@]34CCCN3C[C@H](F)C4)nc3c2COC2(CCc4c(Cl)cccc42)C3)CC[C@@H]1O (stereo partly drawn) [Compound 22, syn-1-[4′-chloro-2-[[(2R,8S)-2-fluoro-1,2,3,5,6,7-hexahydropyrrolizin-8-yl]methoxy]spiro[5,8-dihydropyrano[4,3-d]pyrimidine-7,1′-indane]-4-yl]azepane-4,5-diol]	1 to 20
N#CN[C@@H]1CCCCN(c2nc(OC[C@@]34CCCN3C[C@H](F)C4)nc3c2CO[C@@]2(CCc4c(Cl)cccc42)C3)C1 [Compound 44, [(3R)-1-[(7S)-4′-chloro-2-[[(2R)-2-fluoro-1,2,3,5,6,7-hexahydropyrrolizin-8-yl]methoxy]spiro[5,8-dihydropyrano[4,3-d]pyrimidine-7,1′-indane]-4-yl]azepan-3-yl]cyanamide]	1 to 20
C[C@@]1(NC#N)CCCN(c2nc(OC[C@@]34CCCN3C[C@H](F)C4)nc3c2COC2(CCc4c(Cl)cccc42)C3)C1 (stereo partly drawn) [Compound 46B, [(3R)-1-[(7*)-4′-chloro-2-[[(2R,8S)-2-fluoro-1,2,3,5,6,7-hexahydropyrrolizin-8-yl]methoxy]spiro[5,8-dihydropyrano[4,3-d]pyrimidine-7,1′-indane]-4-yl]-3-methyl-3-piperidyl]cyanamide; 2,2,2-trifluoroacetic acid]	1 to 20
O=C(c1nn2c(c1Cl)CN(c1nc(OC[C@@]34CCCN3C[C@H](F)C4)nc3c1CO[C@@]1(CCc4c(Cl)cccc41)C3)CCC2)N1CCS(=O)(=O)CC1 [Compound 56, [3-chloro-5-[(7R)-4′-chloro-2-[[(2R,8S)-2-fluoro-1,2,3,5,6,7-hexahydropyrrolizin-8-yl]methoxy]spiro[5,8-dihydropyrano[4,3-d]pyrimidine-7,1′-indane]-4-yl]-4,6,7,8-tetrahydropyrazolo[1,5-a][1,4]diazepin-2-yl]-(1,1-dioxo-1,4-thiazinan-4-yl)methanone]	0.01 to 0.1
CN1Cc2c(nc(OC[C@@]34CCCN3C[C@H](F)C4)nc2N2CCC[C@]3(C2)NC(=O)NC3=O)C[C@]12CCc1c(Cl)cccc12 [Compound 58, (5R)-9-[(7S)-4′-chloro-2-[[(2R,8S)-2-fluoro-1,2,3,5,6,7-hexahydropyrrolizin-8-yl]methoxy]-6-methyl-spiro[5,8-dihydropyrido[4,3-d]pyrimidine-7,1′-indane]-4-yl]-1,3,9-triazaspiro[4.5]decane-2,4-dione]	0.01 to 0.1
CN(C)C(=O)c1nn2c(c1Cl)CN(c1nc(OC[C@@]34CCCN3C[C@H](F)C4)nc3c1COC1(CCc4ccc(C(F)F)cc41)C3)CCC2 (stereo partly drawn) [Compound 75, 3-chloro-5-[6′-(difluoromethyl)-2-[[(2R,8S)-2-fluoro-1,2,3,5,6,7-hexahydropyrrolizin-8-yl]methoxy]spiro[5,8-dihydropyrano[4,3-d]pyrimidine-7,1′-indane]-4-yl]-N,N-dimethyl-4,6,7,8-tetrahydropyrazolo[1,5-a][1,4]diazepine-2-carboxamide]	0.1 to 1
CN(C)C(=O)c1nn2c(c1Cl)CN(c1nc(OC[C@@]34CCCN3C[C@H](F)C4)nc3c1CN(CC#N)[C@@]1(CCc4cccc(F)c41)C3)CCC2 [Compound 101, 3-chloro-5-[(7S)-6-(cyanomethyl)-7′-fluoro-2-[[(2R,8S)-2-fluoro-1,2,3,5,6,7-hexahydropyrrolizin-8-yl]methoxy]spiro[5,8-dihydropyrido[4,3-d]pyrimidine-7,1′-indane]-4-yl]-N,N-dimethyl-4,6,7,8-tetrahydropyrazolo[1,5-a][1,4]diazepine-2-carboxamide]	0.1 to 1
CN(C)C(=O)c1nn2c(c1Cl)CN(c1nc(OC[C@@]34CCCN3C[C@H](F)C4)nc3c1CN(CC#N)[C@@]1(CCCc4ccccc41)C3)CCC2 [Compound 102, 3-chloro-5-[(7S)-6-(cyanomethyl)-2-[[(2R,8S)-2-fluoro-1,2,3,5,6,7-hexahydropyrrolizin-8-yl]methoxy]spiro[5,8-dihydropyrido[4,3-d]pyrimidine-7,1′-tetralin]-4-yl]-N,N-dimethyl-4,6,7,8-tetrahydropyrazolo[1,5-a][1,4]diazepine-2-carboxamide]	0.01 to 0.1
CCN1Cc2c(nc(OC[C@@]34CCCN3C[C@H](F)C4)nc2N2CCCn3nc(C(=O)N(C)C)c(Cl)c3C2)C[C@]12CCc1cccc(F)c12 [Compound 103, 3-chloro-5-[(7S)-6-ethyl-7′-fluoro-2-[[(2R,8S)-2-fluoro-1,2,3,5,6,7-hexahydropyrrolizin-8-yl]methoxy]spiro[5,8-dihydropyrido[4,3-d]pyrimidine-7,1′-indane]-4-yl]-N,N-dimethyl-4,6,7,8-tetrahydropyrazolo[1,5-a][1,4]diazepine-2-carboxamide]	0.01 to 0.1
